# Laboratory results taken from patent US20250101013A1, “FUNCTIONALIZED AMINOTHIAZOLES” (LEADXPRO AG, priority 2022, published 2025).
# Key:
# Format in all cases: cell-based
# Settings in all cases: HEK293 cells expressing recombinant human receptor
# human A2A receptor = human A2A receptor (Homo sapiens (Human), UniProt P29274); assay: Intracellular cAMP functional assay (HTRF), A2A
# Protocol: (§1) Compound activity in human adenosine receptors A2A, A2B, A1, and A3 was measured in this functional cellular assay using an HTRF kit (Perkin Elmer). […] Dose response curves were performed in parallel with the reference compounds. The reference compounds used for A2A, A2B, A1, and A3, were respectively NECA, ZM241385, DPCPX, MRS. 12 μl of cells were mixed with 6 μl of the test compound at increasing concentrations and then incubated 10 min. Thereafter 6 μl of the reference agonist was added at a final concentration corresponding to the historical EC80. The plates were then incubated for 30 min at room temperature. After addition of the lysis buffer and 1 hour incubation, cAMP concentrations were estimated, according to the manufacturer specification, with the HTRF kit. The results showing functional activity of embodied compounds on adenosine receptors are shown below in Table 1.
# human A2B receptor = human A2B receptor (Homo sapiens (Human), UniProt P29275); assay: Intracellular cAMP functional assay (HTRF), A2B
# Protocol: as §1
# human A3 receptor = human A3 receptor (Homo sapiens (Human), UniProt P0DMS8); assay: Intracellular cAMP functional assay (HTRF), A3
# Protocol: as §1
# human A1 receptor = human A1 receptor (Homo sapiens (Human), UniProt P30542); assay: Intracellular cAMP functional assay (HTRF), A1
# Protocol: as §1
# Sequence of human A3 receptor (P0DMS8 whole entry): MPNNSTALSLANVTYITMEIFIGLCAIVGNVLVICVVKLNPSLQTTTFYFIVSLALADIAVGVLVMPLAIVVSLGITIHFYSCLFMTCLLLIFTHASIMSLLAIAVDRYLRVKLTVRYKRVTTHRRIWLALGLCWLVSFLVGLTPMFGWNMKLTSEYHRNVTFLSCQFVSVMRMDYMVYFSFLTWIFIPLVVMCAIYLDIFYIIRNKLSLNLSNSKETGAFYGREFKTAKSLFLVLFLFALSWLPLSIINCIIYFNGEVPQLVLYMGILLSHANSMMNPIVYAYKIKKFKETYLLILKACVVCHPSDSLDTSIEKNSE
# Sequence of human A2B receptor (P29275 whole entry): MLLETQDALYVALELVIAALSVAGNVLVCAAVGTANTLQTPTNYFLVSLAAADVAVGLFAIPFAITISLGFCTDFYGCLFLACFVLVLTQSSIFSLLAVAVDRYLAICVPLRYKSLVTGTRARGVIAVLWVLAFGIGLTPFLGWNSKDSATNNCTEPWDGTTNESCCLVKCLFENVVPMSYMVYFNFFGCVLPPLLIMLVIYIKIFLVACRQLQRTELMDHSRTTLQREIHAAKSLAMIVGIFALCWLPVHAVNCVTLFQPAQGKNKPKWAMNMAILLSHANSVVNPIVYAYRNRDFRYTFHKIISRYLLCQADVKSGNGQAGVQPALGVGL
# Sequence of human A1 receptor (P30542 whole entry): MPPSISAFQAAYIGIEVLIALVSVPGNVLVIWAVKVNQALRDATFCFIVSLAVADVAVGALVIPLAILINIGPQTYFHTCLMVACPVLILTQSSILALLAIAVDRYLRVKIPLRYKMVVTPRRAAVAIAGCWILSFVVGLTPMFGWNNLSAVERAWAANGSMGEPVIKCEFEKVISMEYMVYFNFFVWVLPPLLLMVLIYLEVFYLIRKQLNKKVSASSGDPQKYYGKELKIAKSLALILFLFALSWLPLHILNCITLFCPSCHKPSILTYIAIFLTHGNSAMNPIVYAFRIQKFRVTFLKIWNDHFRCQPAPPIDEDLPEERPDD
# Sequence of human A2A receptor (P29274 whole entry): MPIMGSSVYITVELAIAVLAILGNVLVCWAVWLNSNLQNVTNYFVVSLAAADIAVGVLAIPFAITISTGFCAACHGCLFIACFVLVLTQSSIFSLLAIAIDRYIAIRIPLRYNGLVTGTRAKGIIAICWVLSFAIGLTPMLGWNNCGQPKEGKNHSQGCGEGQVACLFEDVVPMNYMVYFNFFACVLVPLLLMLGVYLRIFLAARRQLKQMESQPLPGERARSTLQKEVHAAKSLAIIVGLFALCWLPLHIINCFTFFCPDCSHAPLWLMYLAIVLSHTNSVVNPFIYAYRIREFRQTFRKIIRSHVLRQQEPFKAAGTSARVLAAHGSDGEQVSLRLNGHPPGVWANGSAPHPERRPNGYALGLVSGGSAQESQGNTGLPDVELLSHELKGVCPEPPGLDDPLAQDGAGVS
Structure (SMILES),EC50 (human A2A receptor) [nM],EC50 (human A2B receptor) [nM],EC50 (human A3 receptor) [nM],EC50 (human A1 receptor) [nM]
"CCc1nccn1-c1sc(Nc2n[nH]c(C)n2)nc1-c1cccc(C#N)c1 [Compound 16, 3-[5-(2-Ethyl-1H-Imidazol-1-Yl)-2-[(5-Methyl-1H-1,2,4-Triazol-3-Yl)Amino]-1,3-Thiazol-4-Yl]Benzonitrile]",61,2.2,–,–
"Cc1cnccc1-c1sc(Nc2n[nH]c(C3CC3)n2)nc1-c1cccc(C#N)c1 [Compound 3, 3-{2-[(5-Cyclopropyl-1H-1,2,4-Triazol-3-Yl)Amino]-5-(3-Methylpyridin-4-Yl)-1,3-Thiazol-4-Yl}Benzonitrile]",119,0.38,> 20000,1.8
"Cn1cc(-c2sc(Nc3n[nH]c(C4CC4)n3)nc2-c2cccc(C#N)c2)ccc1=O [Compound 29, 3-{2-[(5-Cyclopropyl-1H-1,2,4-Triazol-3-Yl)Amino]-5-(1-Methyl-6-Oxo-1,6-Dihydropyridin-3-Yl)-1,3-Thiazol-4-Yl}Benzonitrile]",1.1,0.4,> 30000,4.8
"Cc1cncnc1-c1sc(Nc2n[nH]c(C3CC3)n2)nc1-c1cccc(C#N)c1 [Compound 27, 3-{2-[(5-Cyclopropyl-1H-1,2,4-Triazol-3-Yl)Amino]-5-(5-Methylpyrimidin-4-Yl)-1,3-Thiazol-4-Yl}Benzonitrile]",–,1.7,> 30000,20.7
"N#Cc1cccc(-c2nc(Nc3n[nH]c(C4CC4)n3)sc2-n2ccnc2CO)c1 [Compound 17, 3-{2-[(5-Cyclopropyl-1H-1,2,4-Triazol-3-Yl)Amino]-5-[2-(Hydroxymethyl)-1H-Imidazol-1-Yl]-1,3-Thiazol-4-Yl}Benzonitrile]",100,2.4,–,–
"CCc1nc(Nc2nc(-c3cccc(C#N)c3)c(-n3ccnc3CO)s2)n[nH]1 [Compound 20, 3-{2-[(5-Ethyl-1H-1,2,4-Triazol-3-Yl)Amino]-5-[2-(Hydroxymethyl)-1H-Imidazol-1-Yl]-1,3-Thiazol-4-Yl}Benzonitrile]",3410,1.26,> 30000,360
"Cc1cnccc1-c1sc(Nc2nc[nH]n2)nc1-c1cccc(C#N)c1 [Compound 22, 3-{5-(3-Methylpyridin-4-Yl)-2-[(1H-1,2,4-Triazol-3-Yl)Amino]-1,3-Thiazol-4-Yl}Benzonitrile]",–,0.6,> 30000,2.3
"N#Cc1cccc(-c2nc(Nc3n[nH]c(C4CC4)n3)sc2-c2ccnnc2)c1 [Compound 25, 3-{2-[(5-Cyclopropyl-1H-1,2,4-Triazol-3-Yl)Amino]-5-(Pyridazin-4-Yl)-1,3-Thiazol-4-Yl}Benzonitrile]",–,2.4,> 30000,2.6
"Cc1cnncc1-c1sc(Nc2n[nH]c(C3CC3)n2)nc1-c1cccc(C#N)c1 [Compound 23, 3-{2-[(5-Cyclopropyl-1H-1,2,4-Triazol-3-Yl)Amino]-5-(5-Methylpyridazin-4-Yl)-1,3-Thiazol-4-Yl}Benzonitrile]",–,6.7,> 30000,115
"N#Cc1cccc(-c2nc(Nc3n[nH]c(C4CC4)n3)sc2-c2ccncn2)c1 [Compound 24, 3-{2-[(5-Cyclopropyl-1H-1,2,4-Triazol-3-Yl)Amino]-5-(Pyrimidin-4-Yl)-1,3-Thiazol-4-Yl}Benzonitrile]",–,2.3,> 30000,24.1
"N#Cc1cccc(-c2nc(Nc3n[nH]c(C4CC4)n3)sc2-c2ccncc2)c1 [Compound 26, 3-{2-[(5-Cyclopropyl-1H-1,2,4-Triazol-3-Yl)Amino]-5-(Pyridin-4-Yl)-1,3-Thiazol-4-Yl}Benzonitrile]",–,0.7,> 30000,0.8
"Cc1nccn1-c1sc(Nc2n[nH]c(C3CC3)n2)nc1-c1cc(C#N)ccc1F [Compound 18, 3-{2-[(5-Cyclopropyl-1H-1,2,4-Triazol-3-Yl)Amino]-5-(2-Methyl-1H-Imidazol-1-Yl)-1,3-Thiazol-4-Yl}-4-Fluorobenzonitrile]",> 10000,33.4,–,–
